Assay results: patent US7129250B2, “Neuroprotective and anti-proliferative compounds” (Aegera Therapeutics Inc., priority 2000, dated 2006)
Values belong to the compound of their own block, whether it stands above or below them.

Key:
CGNs [1] = experiment: High/Low Potassium (HK/LK) assay in CGNs; type: cell-based; conditions: HK/LK switch, drug 24 h pre-treatment, assayed 16 h after media change, concentration at which cell death was inhibited by 50%
Procedure: Cultured CGNs which are maintained in a medium containing 26 mM potassium (high K^+ or HK) undergo cell death when the medium is changed to one containing 5 mM potassium (low K^+ or LK). HK maintains the cells in a highly polarized state, duplicating that of fully innervated neurons. The switch to LK (5 mM is more representative of physiological conditions) results in depolarization of the cells, mimicking the loss of neuronal conductivity. […] As these killer genes are turned on by various types of neuronal insult as observed in AD, PD, and stroke, HK/LK is a general in vitro model for neuronal degradation, blanketing a wide range of neurodegenerative diseases. Compounds that protect against HK/LK in CGNs would therefore be efficacious in treatment and/or prevention of various neurodegenerative disease states.
CGNs were harvested from day 8/9 post-natal CD1 mice, plated on Poly-D-Lycine coated plates and incubated for 6 days at 37° C., with […] potassium, under 5% CO2. Pretreated cells were treated with drug 24 hours prior to changing the media to one containing […] potassium and drug. Cells were assayed 16 hours after the final media change using cell TITER96 (Promega).

Jurkat cells = experiment: Killing of cultured Jurkats with and without anti-Fas; type: cell-based, Human; conditions: for Survival % With Anti-Fas: with anti-Fas (5 ng/mL)
Procedure: Jurkats are a T-cell derived lymphoma cell line which expresses both FAS receptor and Fas-L. These cells, however, are only mildly sensitive to Fas-L/anti-Fas induced apoptosis. Select compounds were tested for their ability to kill Jurkats. Additionally, we investigated the ability of select compounds to sensitize the Jurkats to anti-Fas mediated apoptosis.
Human lymphoma jurkat cells were cultured in suspension in 24 well plates. Jurkat cell were treated with test compounds either alone or in the presence of suboptimal doses of anti-Fas antibody. After 18 hours of treatment cell death was assessed by Facs. Cells were incubated with propidium iodide and the percentage of cells that incorporated the stain was counted by Facs.

HIAP1 mRNA in LAN5 cells = experiment: LAN5 HAIP1 Down Regulators (RNA levels); type: cell-based; conditions: HIAP1 RNA level vs control = 1.0; 24 hours drug
Procedure: LAN5 cells were grown in growth media. Cells were plated at cells 50,000 per well in 96 cells per 96 wells. Five days latter drug was added and the cells were liced 24 hours latter using RLT buffer.

SHSY-5Y cells = experiment: Etoposide Killing of SHSY-5Y; type: cell-based; conditions: etoposide 32 uM
Procedure: SHSY-5Y cells were grown in growth media. Cells are placed at 50,000 cells per 96 well. Four days latter the cells were treated with drug for 48 hours prior to etoposide (32 uM) treatment. On day 6 media was changed to that containing etoposide and drug for 4 hours, at which point the media was changed to media containing drug only. Cells are allowed to survive overnight and then assessed for viability with metabolic activity measured (WST-1-Beohringer Mannheime), as shown in TABLE 13.

CGNs [2] = experiment: Cisplatin Killing of CGNs; type: cell-based, CD1 mice; conditions: assayed 48 hours after final drug treatment
Procedure: Cisplatin has been used extensively in the treatment of various cancers. One dosblimiting side effect of this chemotherapeutic agent is related to hearing loss as a result of its toxicity to auditory neurons and loss of feeling in the extremities. Cisplatin induces apoptosis to both cultured CGN and cortical neurons.
CGNs were harvested from day 8/9 post-natal CD1 mice, plated on Poly-D-Lycine coated plates and incubated for 6 days at 37° C. under 5% CO2. The cells were treated with media containing drug and cisplatin […].

SMILES: O=C1C=C(c2cn(S(=O)(=O)c3ccc([N+](=O)[O-])cc3)c3ccccc23)C(=O)N1 [Compound 96, 3-(N-(4-nitrobenzenesulfonyl)indol-3-yl)-1H-pyrrole-2,5-dione]
IC50 (CGNs [1]; Mus musculus): 10 µM

SMILES: N=C(N)SCCCn1cc(C2=C(n3ccc4cc(OCc5ccccc5)ccc43)C(=O)NC2=O)c2ccccc21 [Compound 147]
Survival % With Anti-Fas (Jurkat cells; compound dose 3 (μM)): 19.7% | Survival % Without Anti-Fas (Jurkat cells; compound dose 3 (μM)): >90% | Survival % Without Anti-Fas (Jurkat cells; compound dose 10 (μM)): 0%

SMILES: O=C1C=C(c2cn(S(=O)(=O)c3ccc4ccccc4c3)c3ccc(Br)cc23)C(=O)N1 [Compound 62, 3-(N-(2-naphthylenesulfonyl)-5-bromoindol-3-yl)-1H-pyrrole-2,5-dione]
Fold Induction (HIAP1 mRNA in LAN5 cells): 0.18

SMILES: O=C1C=C(c2cn(S(=O)(=O)c3ccc([N+](=O)[O-])cc3)c3ccc(OCc4ccccc4)cc23)C(=O)N1 [Compound 71, 3-(N-(4-nitrobenzenesulfonyl)-5-benzyloxyindol-3-yl)-1H-pyrrole-2,5-dione]
% SHSY-5Y cell survival (SHSY-5Y cells; drug 10 μM): 26.4%

SMILES: O=C1C=C(c2cn(Cc3ccc(F)cc3)c3ccc(OCc4ccccc4)cc23)C(=O)N1 [Compound 77, 3-(N-(4-fluorobenzyl)-5-benzyloxyindol-3-yl)-1H-pyrrole-2,5-dione]
IC50 (CGNs [1]; Mus musculus): 10 µM

SMILES: Cn1cc(C2=C(n3cc(CCCSC(=N)N)c4ccccc43)C(=O)NC2=O)c2ccccc21 [Compound 167]
Survival % With Anti-Fas (Jurkat cells; compound dose 0.3 (μM)): 43.3% | Survival % Without Anti-Fas (Jurkat cells; compound dose 0.3 (μM)): 97.7% | Survival % With Anti-Fas (Jurkat cells; compound dose 1 (μM)): 16.7% | Survival % Without Anti-Fas (Jurkat cells; compound dose 1 (μM)): 88.3% | Survival % With Anti-Fas (Jurkat cells; compound dose 3 (μM)): 4.9% | Survival % Without Anti-Fas (Jurkat cells; compound dose 3 (μM)): 50.3% | Survival % With Anti-Fas (Jurkat cells; compound dose 10 (μM)): 0% | Survival % Without Anti-Fas (Jurkat cells; compound dose 10 (μM)): 0% | Survival % With Anti-Fas (Jurkat cells; compound dose 30 (μM)): 0% | Survival % Without Anti-Fas (Jurkat cells; compound dose 30 (μM)): 0%

SMILES: COc1ccc2c(c1)cc1c3[nH]c4ccccc4c3c3c(n21)C(=O)NC3=O [Compound 48]
IC50 (CGNs [2]): 10 µM | IC50 (CGNs [1]): 3 µM

SMILES: Cc1cn(C2=C(c3cn(CCCSC(=N)N)c4ccccc34)C(=O)NC2=O)c2ccccc12 [Compound 146]
Survival % With Anti-Fas (Jurkat cells; compound dose 3 (μM)): 19.7% | Survival % Without Anti-Fas (Jurkat cells; compound dose 3 (μM)): >90% | Survival % Without Anti-Fas (Jurkat cells; compound dose 10 (μM)): 0%

SMILES: O=C1NC(=O)C(n2ccc3ccccc32)=C1c1cn(CCCO)c2ccccc12 [Compound 121]
% SHSY-5Y cell survival (SHSY-5Y cells; drug 1 μM): 5.5%

SMILES: N=C(N)SCCCn1cc(C2=C(n3ccc4ccccc43)C(=O)NC2=O)c2cc(OCc3ccccc3)ccc21 [Compound 148]
Survival % Without Anti-Fas (Jurkat cells; compound dose 3 (μM)): >90% | Survival % With Anti-Fas (Jurkat cells; compound dose 10 (μM)): 19.7% | Survival % Without Anti-Fas (Jurkat cells; compound dose 10 (μM)): 0%

SMILES: N=C(N)SCCCn1cc(C2=C(N3CCc4ccccc43)C(=O)NC2=O)c2ccccc21 [Compound 159]
Survival % With Anti-Fas (Jurkat cells; compound dose 3 (μM)): 9.48% | Survival % Without Anti-Fas (Jurkat cells; compound dose 3 (μM)): >90% | Survival % Without Anti-Fas (Jurkat cells; compound dose 10 (μM)): 17.38%

SMILES: O=C1C=C(c2cn(S(=O)(=O)c3ccccc3[N+](=O)[O-])c3ccccc23)C(=O)N1 [Compound 95, 3-(N-(2-nitrobenzenesulfonyl)indol-3-yl)-1H-pyrrole-2,5-dione]
IC50 (CGNs [1]; Mus musculus): 10 µM

Fold Induction (HIAP1 mRNA in LAN5 cells): 0.40
SMILES: O=C1C=C(c2cn(C(=O)c3ccccc3)c3ccc(Br)cc23)C(=O)N1 [Compound 59, 3-(N-benzoyl-5-bromoindol-3-yl)-1H-pyrrole-2,5-dione]

SMILES: COc1ccc2c(ccn2C2=C(c3c[nH]c4ccccc34)C(=O)NC2=O)c1 [Compound 3, 3-(5-Methoxyindol-1-yl)-4-(1H-indol-3-yl)-1H-pyrrole-2,5-dione]
IC50 (CGNs [2]; Mus musculus): 10 µM
